This note sets out measurements from patent publication US10053453B2, “Compounds and their use as BACE inhibitors” (AstraZeneca AB, priority 2014, dated 2018).

Like-named read-outs stand apart in the source and are kept apart here.

The target in one assay is T1, Human BACE2 (Homo sapiens, UniProt Q9Y5Z0).
T1 construct: the soluble part of the human β-Secretase2 (AA1-AA473) was cloned using BACE2(1-473)-(AVT)-Fc-pDEST12.2 mammalian expression vector; AVT linker (C); made in house
T1 sequence (Q9Y5Z0 21-473): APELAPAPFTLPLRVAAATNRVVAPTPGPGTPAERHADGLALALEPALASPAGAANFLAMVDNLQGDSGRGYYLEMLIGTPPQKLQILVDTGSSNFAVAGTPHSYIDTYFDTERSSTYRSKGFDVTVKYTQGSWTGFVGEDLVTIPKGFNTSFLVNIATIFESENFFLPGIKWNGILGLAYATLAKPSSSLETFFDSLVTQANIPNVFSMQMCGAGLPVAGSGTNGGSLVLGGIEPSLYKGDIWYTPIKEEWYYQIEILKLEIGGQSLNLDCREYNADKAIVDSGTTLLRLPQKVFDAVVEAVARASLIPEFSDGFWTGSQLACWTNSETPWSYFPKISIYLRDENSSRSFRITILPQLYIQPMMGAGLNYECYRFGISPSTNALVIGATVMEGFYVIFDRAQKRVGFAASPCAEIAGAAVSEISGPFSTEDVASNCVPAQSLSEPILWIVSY
Nature of the assay: TR-FRET assay. The following applies: substrate 100 nM, pH4.5. Format: biochemical.

The next assay relates to SH-SY5Y cells. Put plainly: sAPPβ release assay.
In a further assay the target is T2, Human BACE1 (Homo sapiens, UniProt P56817).
T2 construct: the soluble part of the human β-Secretase1 (AA1-AA460) was cloned using the BACE1(1-460)-(AVT)-Fc-pGEN-IRES-neo mammalian expression vector; AVT linker (C); made in house
Put plainly: Diluted TR-FRET assay. Type of assay: biochemical. The settings on record: 50 times less enzyme, 6.5 h reaction time at r.t.; read-out: IC50 BACE1 (dil. TR-FRET). A digest of the protocol:
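Human BACE1 (residues 1-460) was fused to an IgG1 Fc affinity tag and stably expressed in HEK 293 cells. Using a Multidrop Combi, 7 μL enzyme was added to 0.8 μL compound in dimethylsulphoxide and incubated 10 minutes. Reactions were stopped with 5.5 μL NaOAC Stop solution (pH 9), and TR-FRET fluorescence was read on a Pherastar HTRF module.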

The mark [1] stands for this setting: Homo sapiens, SH-SY5Y, read-out: IC50 Cell (sAPPβ release, nM), SH-SY5Y cells, compounds incubated 16-17 h.

T2 sequence (P56817 22-460): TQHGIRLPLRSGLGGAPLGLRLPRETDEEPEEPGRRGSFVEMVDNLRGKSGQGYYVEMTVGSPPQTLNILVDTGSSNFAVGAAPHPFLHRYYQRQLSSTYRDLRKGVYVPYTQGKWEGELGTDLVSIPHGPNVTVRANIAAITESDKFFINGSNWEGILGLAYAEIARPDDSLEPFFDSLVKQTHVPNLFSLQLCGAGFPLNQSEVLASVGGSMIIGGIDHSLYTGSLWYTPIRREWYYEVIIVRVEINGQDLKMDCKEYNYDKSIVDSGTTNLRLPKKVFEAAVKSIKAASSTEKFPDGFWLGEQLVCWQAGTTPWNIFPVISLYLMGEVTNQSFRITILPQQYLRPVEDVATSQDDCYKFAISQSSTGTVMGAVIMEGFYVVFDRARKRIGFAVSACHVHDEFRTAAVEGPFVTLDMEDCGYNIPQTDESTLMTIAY
Description for SH-SY5Y cells: Cells were thawed and seeded at a concentration of around 10000 cells/well in DMEM/F-12 with Glutamax, 10% FCS and 1% non-essential amino acids to a 384-well tissue culture treated plate, 30 μL cell susp/well. The cell plates were then incubated for 7-24 h at 37° C., 5% CO2.
The cell medium was removed, followed by addition of 50 μL compound diluted in DMEM/F-12 with Glutamax, 10% FCS, 1% non-essential amino acids to a final cone of 0.5% DMSO. The compounds were incubated with the cells for 16-17 h (overnight) at 37° C., 5% CO2.
Meso Scale Discovery (MSD) plates were used for the detection of sAPP release. MSD sAPPβ plates were blocked in 1% BSA in Tris wash buffer for 1 h on shake at r.t. and washed 1 time in Tris wash buffer. […] The MSD plates were incubated with shaking at r.t. for 2 h and the media discarded. 10 μL detection antibody was added (1 nM) per well followed by incubation with shaking at r.t. for 2 h and then discarded. 35 μL Read Buffer was added per well and the plates were read in a Meso Scale Discovery SECTOR6000 Imager.

For orientation: IC50 means the point on the concentration scale where inhibition reaches its midpoint. Regarding `[2H]C1([2H])OC(N)=N[C@]12c1cc(-c3cncc(Cl)c3)ccc1C[C@]21CC[C@@H](OC)[C@H](C)C1` [Compound 34, (1R,1′R,3R,4R)-6′-(5-chloropyridin-3-yl)-4-methoxy-3-methyl-3′H,5″H-dispiro[cyclohexane-1,2′-indene-1′,4″-oxazol]-5″,5″-d2-2″-amine], the IC50 came to 22.7 nM against Human BACE2 (enzyme […]); 0.5 nM in the assay with SH-SY5Y cells (read-out: IC50 Cell (sAPPβ release), SH-SY5Y cells, compounds incubated 16-17 h); 11.7 nM on Human BACE1.
Take `[2H]C1([2H])OC(N)=N[C@]12c1cc(-c3cccc(Cl)c3)ccc1C[C@]21CC[C@@H](OC)[C@H](C)C1` [Compound 37, (1R,1′R,3R,4R)-6′-(3-chlorophenyl)-4-methoxy-3-methyl-3′H,5″H-dispiro[cyclohexane-1,2′-indene-1′,4″-oxazol]-5″,5″-d2-2″-amine]: the values for the IC50 against Human BACE2 (enzyme 2.7 μg/mL), in the assay on SH-SY5Y cells (setting [1]) and at Human BACE1 were 17.4 nM, 3.7 nM and 12.8 nM, respectively.
For `CO[C@H]1CC[C@]2(CC1)Cc1ccc(-c3cncc(C#N)c3)cc1[C@@]21COC(N)=N1` [Compound 38, 5-((1r,1′R,4R)-2″-amino-4-methoxy-3′H,5″H-dispiro[cyclohexane-1,2′-indene-1′,4″-oxazol]-6′-yl)nicotinonitrile] the same measures were 315 nM, 4.3 nM and 166 nM.
`[2H]C1([2H])OC(N)=NC12c1cc(-c3cc(Cl)cc(C#N)c3)ccc1C[C@@]21C[C@@H](C)[C@H](OC)[C@@H](C)C1` (stereo partly drawn) [Compound 39, 3-((1r,3R,4r,5S)-2″-amino-4-methoxy-3,5-dimethyl-3′H,5″H-dispiro[cyclohexane-1,2′-indene-1′,4″-oxazol]-6′-yl-5″,5″-d2)-5-chlorobenzonitrile]: the IC50 on Human BACE2 (enzyme 2.7 μg/mL) was determined as 50.7 nM; in the assay on SH-SY5Y cells (setting [1]), 4.3 nM; at Human BACE1, 4.7 nM.
The matching figures for `[2H]C1([2H])OC(N)=NC12c1cc(C([2H])([2H])C([2H])([2H])C(C)C)ccc1C[C@@]21C[C@@H](C)[C@H](OC)[C@@H](C)C1` (stereo partly drawn) [Compound 40, (1r,3R,4r,5S)-4-methoxy-3,5-dimethyl-6′-(3-methylbutyl-1,1,2,2-d4)-3′H,5″H-dispiro[cyclohexane-1,2′-indene-1′,4″-oxazol]-5″,5″-d2-2″-amine]: 118 nM, 4.4 nM and 32.9 nM.
The matching figures for `CO[C@H]1CC[C@]2(CC1)Cc1ccc(-c3cncc(C(F)(F)F)c3)cc1C21COC(N)=N1` (stereo partly drawn) [Compound 42, (1r,4r)-4-methoxy-6′-(5-(trifluoromethyl)pyridin-3-yl)-3′H,5″H-dispiro[cyclohexane-1,2′-indene-1′,4″-oxazol]-2″-amine]: 221 nM, 7.3 nM and 307 nM.
For the compound `[2H]C1([2H])OC(N)=NC12c1cc(CCC(C)C)ccc1C[C@@]21C[C@@H](C)[C@H](OC)[C@@H](C)C1` (stereo partly drawn) [Compound 43, (1r,3R,4r,5S)-6′-isopentyl-4-methoxy-3,5-dimethyl-3′H,5″H-dispiro[cyclohexane-1,2′-indene-1′,4″-oxazol]-5″,5″-d2-2″-amine], the 50% inhibitory concentration (IC50) on Human BACE2 (enzyme 2.7 μg/mL) came out at 194 nM; in the assay on SH-SY5Y cells (setting [1]), 7.5 nM; at Human BACE1, 13.6 nM.
With `[2H]C1([2H])OC(N)=NC12c1cc(OCCC(F)(F)F)ccc1C[C@]21CC[C@@H](OC)CC1` (stereo partly drawn) [Compound 45, (1r,4r)-4-methoxy-6′-(3,3,3-trifluoropropoxy)-3′H,5″H-dispiro[cyclohexane-1,2′-indene-1′,4″-oxazol]-5″,5″-d2-2″-amine], the results for the IC50 against Human BACE2 (enzyme 2.7 μg/mL), in the assay with SH-SY5Y cells (setting [1]) and on Human BACE1 were 589 nM, 7.8 nM and 289 nM, respectively.
For `CO[C@H]1CC[C@]2(CC1)Cc1ccc(-c3cncc(C#N)c3)cc1C21COC(N)=N1` (stereo partly drawn) [Compound 46, 5-((1r,4r)-2″-amino-4-methoxy-3′H,5″H-dispiro[cyclohexane-1,2′-indene-1′,4″-oxazol]-6′-yl)nicotinonitrile] the same measures were 300 nM, 8.8 nM and 219 nM.
For `[2H]C1([2H])OC(N)=NC12c1cc(-c3cc(C#N)cc(OC)c3)ccc1C[C@@]21CC[C@H](O)[C@@H](C)C1` (stereo partly drawn) [Compound 49, 3-((1S,3S,4S)-2″-amino-4-hydroxy-3-methyl-3′H,5″H-dispiro[cyclohexane-1,2′-indene-1′,4″-oxazol]-6′-yl-5″,5″-d2)-5-methoxybenzonitrile] the same measures were 69 nM, 15.8 nM and 166 nM.
Take `CO[C@H]1CC[C@]2(CC1)Cc1ccc(CCC(C)C)cc1C21COC(N)=N1` (stereo partly drawn) [Compound 51, (1r,4r)-6′-isopentyl-4-methoxy-3′H,5″H-dispiro[cyclohexane-1,2′-indene-1′,4″-oxazol]-2″-amine]: the IC50 was 306 nM against Human BACE2 (enzyme 2.7 μg/mL), 20.6 nM with SH-SY5Y cells (setting [1]) and 188 nM at Human BACE1.
The matching figures for `[2H]C1([2H])OC(N)=NC12c1cc(/C=N/OCCC)ccc1C[C@]21CC[C@@H](OC)CC1` (stereo partly drawn) [Compound 53, (E)-2″-amino-4-methoxy-3′H,5″H-dispiro[cyclohexane-1,2′-indene-1′,4″-oxazole]-5″,5″-d2-6′-carbaldehyde O-propyl oxime]: 652 nM, 24.8 nM and 665 nM.
For the compound `[2H]C1([2H])OC(N)=NC12c1cc(/C=N/OCC)ccc1C[C@]21CC[C@@H](OC)CC1` (stereo partly drawn) [Compound 56, (E)-2″-amino-4-methoxy-3′H,5″H-dispiro[cyclohexane-1,2′-indene-1′,4″-oxazole]-5″,5″-d2-6′-carbaldehyde O-ethyl oxime], the IC50 at Human BACE2 (enzyme 2.7 μg/mL) stood at 3240 nM; with SH-SY5Y cells (setting [1]), 57 nM; on Human BACE1 it was 1630 nM.
The matching figures for `[2H]C1([2H])OC(N)=NC12c1cc(-c3cncnc3)ccc1C[C@]21CC[C@@H](O)[C@H](C)C1` (stereo partly drawn) [Compound 57, (1R,3R,4R)-2″-amino-3-methyl-6′-(pyrimidin-5-yl)-3′H,5″H-dispiro[cyclohexane-1,2′-indene-1′,4″-oxazol]-5″,5″-d2-4-ol]: more than 5000 nM, 94.8 nM and 341 nM.
The matching figures for `[2H]C1([2H])OC(N)=NC12c1cc(-c3cc(C#N)cc(OC)c3)ccc1C[C@]21CC[C@@H](O)[C@H](C)C1` (stereo partly drawn) [Compound 58, 3-((1R,3R,4R)-2″-amino-4-hydroxy-3-methyl-3′H,5″H-dispiro[cyclohexane-1,2′-indene-1′,4″-oxazol]-6′-yl-5″,5″-d2)-5-methoxybenzonitrile]: 139 nM, 102 nM and 301 nM.
On to `CO[C@H]1CC[C@]2(CC1)Cc1ccc(-c3cccnn3)cc1C21COC(N)=N1` (stereo partly drawn) [Compound 59, (1r,4r)-4-methoxy-6′-(pyridazin-3-yl)-3′H,5″H-dispiro[cyclohexane-1,2′-indene-1′,4″-oxazol]-2″-amine], for which the IC50 on Human BACE2 (enzyme 2.7 μg/mL) was 4990 nM; in the assay with SH-SY5Y cells (setting [1]) it was 128 nM; on Human BACE1 it was 2250 nM.
On to `[2H]C1([2H])OC(N)=NC12c1cc(/C(C)=N/OCCC(F)(F)F)ccc1C[C@]21CC[C@@H](OC)CC1` (stereo partly drawn) [Compound 60, (E)-1-((1r,4r)-2″-amino-4-methoxy-3′H,5″H-dispiro[cyclohexane-1,2′-indene-1′,4″-oxazol]-6′-yl-5″,5″-d2)ethan-1-one O-(3,3,3-trifluoropropyl)oxime], for which the IC50 is more than 5000 nM at Human BACE2 (enzyme 2.7 μg/mL), 206 nM in the assay with SH-SY5Y cells (setting [1]) and more than 5000 nM on Human BACE1.
With `[2H]C1([2H])OC(N)=NC12c1cc(/C=N/OC3CCC3)ccc1C[C@]21CC[C@@H](OC)CC1` (stereo partly drawn) [Compound 61, (E)-2″-amino-4-methoxy-3′H,5″H-dispiro[cyclohexane-1,2′-indene-1′,4″-oxazole]-5″,5″-d2-6′-carbaldehyde O-cyclobutyl oxime], the IC50 against Human BACE2 (enzyme 2.7 μg/mL) was determined as 3440 nM; with SH-SY5Y cells (setting [1]), 207 nM; on Human BACE1, 1960 nM.
`CO[C@H]1CC[C@]2(CC1)Cc1ccc(-c3ccnnc3)cc1C21COC(N)=N1` (stereo partly drawn) [Compound 62, (1r,4r)-4-methoxy-6′-(pyridazin-4-yl)-3′H,5″H-dispiro[cyclohexane-1,2′-indene-1′,4″-oxazol]-2″-amine]: the IC50 on Human BACE2 (enzyme 2.7 μg/mL) is more than 5000 nM; with SH-SY5Y cells (setting [1]), 250 nM; at Human BACE1, more than 5000 nM.
As for `[2H]C1([2H])OC(N)=NC12c1cc(-c3cncnc3)ccc1C[C@@]21CC[C@H](O)[C@@H](C)C1` (stereo partly drawn) [Compound 63, (1S,3S,4S)-2″-amino-3-methyl-6′-(pyrimidin-5-yl)-3′H,5″H-dispiro[cyclohexane-1,2′-indene-1′,4″-oxazol]-5″,5″-d2-4-ol], the values for the IC50 against Human BACE2 (enzyme 2.7 μg/mL), with SH-SY5Y cells (setting [1]) and at Human BACE1 were more than 5000 nM, 266 nM and 1460 nM, respectively.
